# Bridge positions count the residues as written; N and C are the ends. Square brackets hold non-standard residues; d marks the D form. Peptide text beside a SMILES is read from it. AEEA = NCCOCCOCC(=O)O
# What was measured:
# [1] = biological target: T1, human CCK-B R (Homo sapiens, UniProt P32239); assay: Human CCK-B receptor efficacy assay (AlphaScreen SureFire p-ERK); type: cell-based; conditions: Table 2; read-out: hCCK-B R EC50
# T1 construct: expressed in transfected cells
# T1 sequence (P32239 1-447): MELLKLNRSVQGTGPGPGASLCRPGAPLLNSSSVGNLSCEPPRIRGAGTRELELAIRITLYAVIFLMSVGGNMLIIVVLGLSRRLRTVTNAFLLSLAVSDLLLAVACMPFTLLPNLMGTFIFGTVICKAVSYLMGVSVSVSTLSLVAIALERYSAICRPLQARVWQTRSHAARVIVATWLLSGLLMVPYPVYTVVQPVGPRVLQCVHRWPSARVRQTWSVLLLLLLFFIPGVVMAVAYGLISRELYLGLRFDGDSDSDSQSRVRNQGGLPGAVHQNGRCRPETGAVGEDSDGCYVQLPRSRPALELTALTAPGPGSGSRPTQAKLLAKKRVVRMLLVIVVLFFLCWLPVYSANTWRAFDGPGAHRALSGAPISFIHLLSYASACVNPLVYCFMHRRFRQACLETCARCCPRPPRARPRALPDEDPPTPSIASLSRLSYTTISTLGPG
# Procedure: CCK-B Receptor (CCK-B R) Efficacy Assay:
# In vitro effects of peptide conjugates of the invention were estimated by measuring p-ERK (using the AlphaScreen™ SureFire p-ERK assay) in HEK293 cells stably expressing the human and mouse CCK-B R (high-affinity Gastrin receptor), respectively. The Gastrin receptor efficacy assays (AlphaScreen™ SureFire p-ERK assay) were performed as follows:
# The CCK-B R expressing cells in question were seeded at 20,000 cells/well in 100 μl growth medium [DMEM, 10% FCS, Penicillin (100 IU/ml), Streptomycin (100 μg/ml)] in a 96-well plate coated with poly-D-lysine. The cells were incubated in an incubator (37° C., 5% 002) for two days.
# The growth medium was changed to 80 μl of serum-free medium [DMEM, Penicillin (100 IU/ml), Streptomycin (100 μg/ml)] per well, and incubation of the cells was continued for 19 hours in the incubator (37° C., 5% CO2).
# After 19 hours, 20 μl of serum-free medium containing one of 5 different concentrations of peptide conjugate was added (performed in triplicate for each concentration), and the cells were incubated for 5 min. at room temperature. • 2. The stimulation medium was discarded by quickly turning the plate upside down, and 60 μl 1× lysis buffer (from the SureFire assay kit) was added per well. • 3. The plate was shaken on a plate-shaker for 5 min and then placed on ice. • 4. SureFire P-ERK assay: 4 μl of each supernatant was transferred to a 384 well proxiplate (Perkin Elmer). • 5. 4 μl of each of the two control lysates (unstimulated and stimulated) were added to the proxiplate in duplicate. • 6. […] 7 μl of the latter reaction buffer+activation buffer+beads per well were added in the proxiplate, the mix being resuspended carefully before addition to the wells. • 7. The plate was incubated for 2 hours in a dark box in a 22° C. incubator. • 8. The plate was analyzed on an Envision™ light-emission plate reader (Perkin-Elmer) using the appropriate reading program (Perkin-Elmer).
# [2] = in vivo; set-up: species or system C57Bl mice; conditions: mouse, sc, 100 nmol/kg; for half-life: C57Bl
# Procedure: Two C57Bl mice were given a single subcutaneous dose of 100 nmol/kg of each peptide. […] At each time point, samples from two mice were taken. Plasma samples were analyzed after solid phase extraction (SPE) by liquid chromatography mass spectrometry (LC-MS/MS).
# [3] = biological target: T2, human GLP-1 R (Homo sapiens, UniProt P43220); assay: Human GLP-1 receptor efficacy assay (cAMP induction, FlashPlate); type: cell-based; conditions: Table 2; read-out: hGLP-1 R EC50
# T2 construct: expressed in transfected cells
# T2 sequence (P43220 24-463): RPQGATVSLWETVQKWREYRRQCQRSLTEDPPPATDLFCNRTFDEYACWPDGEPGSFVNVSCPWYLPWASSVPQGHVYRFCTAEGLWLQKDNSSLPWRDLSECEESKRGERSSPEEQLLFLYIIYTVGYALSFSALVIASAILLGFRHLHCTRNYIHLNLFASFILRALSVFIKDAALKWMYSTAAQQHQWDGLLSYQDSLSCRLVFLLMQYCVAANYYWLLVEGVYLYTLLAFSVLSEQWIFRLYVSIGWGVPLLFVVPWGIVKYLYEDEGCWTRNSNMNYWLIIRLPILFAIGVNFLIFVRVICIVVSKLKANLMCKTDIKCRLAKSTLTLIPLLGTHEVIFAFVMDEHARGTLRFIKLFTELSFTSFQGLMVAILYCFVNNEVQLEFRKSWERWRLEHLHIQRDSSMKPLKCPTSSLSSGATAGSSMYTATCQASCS
# Procedure: On the day of analysis, growth medium was removed and the cells were washed once with 200 μl Tyrode buffer [Tyrode's Salts (9.6 g/l), 10 mM HEPES, pH 7.4]. […] The reaction was stopped by addition of 25 μl 0.5 M HCl and incubated on ice for 60 min.
EC50 [1] [nM],half-life [2] [h],Half-life and exposure (in words) [2],EC50 [3] [nM],SMILES
,3.1,superior to the rest,0.044,"CC[C@H](C)[C@H](NC(=O)[C@H](Cc1ccccc1)NC(=O)[C@H](CC(C)C)NC(=O)[C@H](CCCNC(=N)N)NC(=O)[C@@H](NC(=O)[C@H](C)NC(=O)[C@H](CCC(=O)O)NC(=O)[C@H](CCC(=O)O)NC(=O)[C@H](CCC(=O)O)NC(=O)[C@H](CC(C)C)NC(=O)[C@H](Cc1ccc(O)cc1)NC(=O)[C@H](CCCCN)NC(=O)[C@H](CO)NC(=O)[C@H](CC(C)C)NC(=O)[C@H](CC(=O)O)NC(=O)[C@H](CO)NC(=O)[C@@H](NC(=O)[C@H](Cc1ccccc1)NC(=O)[C@@H](NC(=O)CNC(=O)[C@H](CCC(=O)O)NC(=O)CNC(=O)[C@@H](N)Cc1c[nH]cn1)[C@@H](C)O)[C@@H](C)O)C(C)C)C(=O)N[C@@H](CCC(=O)O)C(=O)N[C@@H](Cc1ccccc1)C(=O)N[C@@H](CC(C)C)C(=O)N[C@@H](CCCCN)C(=O)NCCOCCOCC(=O)NCCOCCOCC(=O)N[C@@H](Cc1ccc(O)cc1)C(=O)NCC(=O)N[C@@H](Cc1c[nH]c2ccccc12)C(=O)N[C@@H](CC(C)C)C(=O)N[C@@H](CC(=O)O)C(=O)N[C@@H](Cc1ccccc1)C(N)=O [Compound 77, [Tyr13,Leu14,Phe25]Exendin-4(1-27)-Peg3-Peg3-[Leu4]Gastrin6] (H-HGEGTFTSDLSKYLEEEAVRLFIEFLK[AEEA][AEEA]YGWLDF-NH2)"
,1.5,,0.026,"CC[C@H](C)[C@H](NC(=O)[C@H](Cc1ccccc1)NC(=O)[C@H](CC(C)C)NC(=O)[C@@H]1CCCCNC(=O)CC[C@H](NC(=O)[C@H](CCC(=O)O)NC(=O)[C@H](CCSC)NC(=O)[C@H](CCC(N)=O)NC(=O)[C@H](CCCCN)NC(=O)[C@H](CO)NC(=O)[C@H](CC(C)C)NC(=O)[C@H](CC(=O)O)NC(=O)[C@H](CO)NC(=O)[C@@H](NC(=O)[C@H](Cc2ccccc2)NC(=O)[C@@H](NC(=O)CNC(=O)[C@H](CCC(=O)O)NC(=O)CNC(=O)[C@@H](N)Cc2c[nH]cn2)[C@@H](C)O)[C@@H](C)O)C(=O)N[C@@H](CCC(=O)O)C(=O)N[C@@H](C)C(=O)N[C@@H](C(C)C)C(=O)N1)C(=O)N[C@@H](CCC(=O)O)C(=O)N[C@@H](Cc1c[nH]c2ccccc12)C(=O)N[C@@H](CC(C)C)C(=O)N[C@@H](CCCCN)C(=O)N[C@@H](CC(N)=O)C(=O)NCCOCCOCC(=O)NCCOCCOCC(=O)N[C@@H](Cc1ccc(O)cc1)C(=O)NCC(=O)N[C@@H](Cc1c[nH]c2ccccc12)C(=O)N[C@@H](CC(C)C)C(=O)N[C@@H](CC(=O)O)C(=O)N[C@@H](Cc1ccccc1)C(N)=O [Compound 79, Side chain-cyclo([Glu16,Lys20]Exendin-4(1-28)-Peg3-Peg3-[Leu4]Gastrin6] (H-HGEGTFTSDLSKQMEEEAVKLFIEWLKN[AEEA][AEEA]YGWLDF-NH2; lactam 16-20)"
4,1.9,,0.032,"CC[C@H](C)[C@@H]1NC(=O)[C@H](Cc2ccccc2)NC(=O)[C@H](CC(C)C)NC(=O)[C@@H](NC(=O)[C@@H](NC(=O)[C@H](C)NC(=O)[C@H](CCC(=O)O)NC(=O)[C@H](CCC(=O)O)NC(=O)[C@H](CCC(=O)O)NC(=O)[C@H](CCSC)NC(=O)[C@H](CCC(N)=O)NC(=O)[C@H](CCCCN)NC(=O)[C@H](CO)NC(=O)[C@H](CC(C)C)NC(=O)[C@H](CC(=O)O)NC(=O)[C@H](CO)NC(=O)[C@@H](NC(=O)[C@H](Cc2ccccc2)NC(=O)[C@@H](NC(=O)CNC(=O)[C@H](CCC(=O)O)NC(=O)CNC(=O)[C@@H](N)Cc2c[nH]cn2)[C@@H](C)O)[C@@H](C)O)C(C)C)CCCCNC(=O)CC[C@@H](C(=O)N[C@@H](Cc2c[nH]c3ccccc23)C(=O)N[C@@H](CC(C)C)C(=O)N[C@@H](CCCCN)C(=O)N[C@@H](CC(N)=O)C(=O)NCCOCCOCC(=O)NCCOCCOCC(=O)N[C@@H](Cc2ccc(O)cc2)C(=O)NCC(=O)N[C@@H](Cc2c[nH]c3ccccc23)C(=O)N[C@@H](CC(C)C)C(=O)N[C@@H](CC(=O)O)C(=O)N[C@@H](Cc2ccccc2)C(N)=O)NC1=O [Compound 80, Side chain-cyclo([Lys20,Glu24]Exendin-4(1-28)-Peg3-Peg3-[Leu4]Gastrin6] (H-HGEGTFTSDLSKQMEEEAVKLFIEWLKN[AEEA][AEEA]YGWLDF-NH2; lactam 20-24)"

# Further lines, the compound ahead of its results:
SMILES,EC50 [1] [nM],half-life [2] [h],Half-life and exposure (in words) [2],EC50 [3] [nM]
"CC[C@H](C)[C@H](NC(=O)[C@H](Cc1ccccc1)NC(=O)[C@H](CC(C)C)NC(=O)[C@H](CCCNC(=N)N)NC(=O)[C@@H](NC(=O)[C@H](C)NC(=O)[C@H](CCC(=O)O)NC(=O)[C@H](CCC(=O)O)NC(=O)[C@H](CCC(=O)O)NC(=O)[C@H](CC(C)C)NC(=O)[C@H](Cc1ccc(O)cc1)NC(=O)[C@H](CCCCN)NC(=O)[C@H](CO)NC(=O)[C@H](CC(C)C)NC(=O)[C@H](CC(=O)O)NC(=O)[C@H](CO)NC(=O)[C@@H](NC(=O)[C@H](Cc1ccccc1)NC(=O)[C@@H](NC(=O)CNC(=O)[C@H](CCC(=O)O)NC(=O)CNC(=O)[C@@H](N)Cc1c[nH]cn1)[C@@H](C)O)[C@@H](C)O)C(C)C)C(=O)N[C@@H](CCC(=O)O)C(=O)N[C@@H](Cc1c[nH]c2ccccc12)C(=O)N[C@@H](CC(C)C)C(=O)N[C@@H](CCCCN)C(=O)NCCOCCOCC(=O)NCCOCCOCC(=O)N[C@@H](Cc1ccc(O)cc1)C(=O)NCC(=O)N[C@@H](Cc1c[nH]c2ccccc12)C(=O)N[C@@H](CC(C)C)C(=O)N[C@@H](CC(=O)O)C(=O)N[C@@H](Cc1ccccc1)C(N)=O [Compound 74, [Tyr13,Leu14]Exendin-4(1-27)-Peg3-Peg3-[Leu4]Gastrin6] (H-HGEGTFTSDLSKYLEEEAVRLFIEWLK[AEEA][AEEA]YGWLDF-NH2)",8.4,3.6,superior to the rest,0.05
"CC[C@H](C)[C@H](NC(=O)[C@H](Cc1ccccc1)NC(=O)[C@H](CC(C)C)NC(=O)[C@H](CCCNC(=N)N)NC(=O)[C@@H](NC(=O)[C@H](C)NC(=O)[C@H](CCC(=O)O)NC(=O)[C@H](CCC(=O)O)NC(=O)[C@H](CCC(=O)O)NC(=O)[C@H](CCSC)NC(=O)[C@H](Cc1ccc(O)cc1)NC(=O)[C@H](CCCCN)NC(=O)[C@H](CO)NC(=O)[C@H](CC(C)C)NC(=O)[C@H](CC(=O)O)NC(=O)[C@H](CO)NC(=O)[C@@H](NC(=O)[C@H](Cc1ccccc1)NC(=O)[C@@H](NC(=O)CNC(=O)[C@H](CCC(=O)O)NC(=O)CNC(=O)[C@@H](N)Cc1c[nH]cn1)[C@@H](C)O)[C@@H](C)O)C(C)C)C(=O)N[C@@H](CCC(=O)O)C(=O)N[C@@H](Cc1ccccc1)C(=O)N[C@@H](CC(C)C)C(=O)N[C@@H](CCCCN)C(=O)NCCOCCOCC(=O)NCCOCCOCC(=O)N[C@@H](Cc1ccc(O)cc1)C(=O)NCC(=O)N[C@@H](Cc1c[nH]c2ccccc12)C(=O)N[C@@H](CC(C)C)C(=O)N[C@@H](CC(=O)O)C(=O)N[C@@H](Cc1ccccc1)C(N)=O [Compound 75, [Tyr13,Phe25]Exendin-4(1-27)-Peg3-Peg3-[Leu4]Gastrin6] (H-HGEGTFTSDLSKYMEEEAVRLFIEFLK[AEEA][AEEA]YGWLDF-NH2)",8.4,2.5,,0.035

# — patent publication US10406207B2, “Peptide conjugates of GLP-1 receptor agonists and gastrin and their use” (priority 2010, dated 2019)
